In patent US20250282768A1 (Janssen Pharmaceutica NV, priority 2022, published 2025) one finds IC50 data, which are given here for 26 compounds.

The subject of the experiment is p-IKKa levels in L363 (NIK translocated multiple myeloma) cells. The experiment in a line: Assay 2: Effect of compounds on p-IKKa levels in L363 (NIK translocated multiple myeloma) cells. Format: cell-based. As to conditions: Homo sapiens, L-363, 6 h, read-out: Assay 2 IC50 (nM), p-IKKa (Ser 176/180) in BAFF stimulated L363 cells with MG132, 6 h; average if tested more than once. Put shortly:
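Read-out is p-IKKa Ser176/180 by AlphaLISA SureFire in lysates. Cells were BAFF-primed (250 ng/ml) overnight or left unstimulated, then exposed 6 h at 37 °C to compound with MG132 (10 μM), 0.3% DMSO. IC50 from sigmoidal curve fit, normalized between stimulated and unstimulated controls.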
For `C[C@H](Nc1nccc(-c2cccc(-c3cc([C@]4(O)CCN(C)C4=O)on3)n2)n1)C(=O)N1CC(F)(F)C1` [Example 170, (R)-3-(3-(6-(2-(((S)-1-(3,3-Difluoroazetidin-1-yl)-1-oxopropan-2-yl)amino)pyrimidin-4-yl)pyridin-2-yl)isoxazol-5-yl)-3-hydroxy-1-methylpyrrolidin-2-one], the IC50 fell in the range of 50 to 500 nM.
Under `C[C@@H](Nc1nccc(-c2cccc(-c3cc([C@]4(O)CCN(C)C4=O)on3)n2)n1)C(=O)N1CC(C(F)(F)F)C1` [Example 171, (R)-3-Hydroxy-1-methyl-3-(3-(6-(2-(((R)-1-oxo-1-(3-(trifluoromethyl)azetidin-1-yl)propan-2-yl)amino)pyrimidin-4-yl)pyridin-2-yl)isoxazol-5-yl)pyrrolidin-2-one] stands 50 to 500 nM; under `C[C@H](Nc1nccc(-c2cccc(-c3cc([C@]4(O)CCN(C)C4=O)on3)n2)n1)C(=O)N1CC(C(F)(F)F)C1` [Example 172, (R)-3-Hydroxy-1-methyl-3-(3-(6-(2-(((S)-1-oxo-1-(3-(trifluoromethyl)azetidin-1-yl)propan-2-yl)amino)pyrimidin-4-yl)pyridin-2-yl)isoxazol-5-yl)pyrrolidin-2-one], 50 to 500 nM; under `C[C@@H](Nc1nccc(-c2cccc(-c3cc([C@]4(O)CCN(C)C4=O)on3)n2)n1)C(=O)N1CCC(F)(F)C1` [Example 173, (R)-3-(3-(6-(2-(((R)-1-(3,3-Difluoropyrrolidin-1-yl)-1-oxopropan-2-yl)amino)pyrimidin-4-yl)pyridin-2-yl)isoxazol-5-yl)-3-hydroxy-1-methylpyrrolidin-2-one], over 500 nM.
Under `C[C@H](Nc1nccc(-c2cccc(-c3cc([C@]4(O)CCN(C)C4=O)on3)n2)n1)C(=O)N1CCC(F)(F)C1` [Example 174, (R)-3-(3-(6-(2-(((S)-1-(3,3-Difluoropyrrolidin-1-yl)-1-oxopropan-2-yl)amino)pyrimidin-4-yl)pyridin-2-yl)isoxazol-5-yl)-3-hydroxy-1-methylpyrrolidin-2-one] stands 50 to 500 nM.
`C[C@@H](Nc1nccc(-c2cccc(-c3cc([C@]4(O)CCN(C)C4=O)on3)n2)n1)C(=O)N(C)C` [Example 175, (R)-2-((4-(6-(5-((R)-3-Hydroxy-1-methyl-2-oxopyrrolidin-3-yl)isoxazol-3-yl)pyridin-2-yl)pyrimidin-2-yl)amino)-N,N-dimethylpropanamide]: the IC50 was over 500 nM.
Regarding `C[C@H](Nc1nccc(-c2cccc(-c3cc([C@]4(O)CCN(C)C4=O)on3)n2)n1)C(=O)N(C)C` [Example 176, (S)-2-((4-(6-(5-((R)-3-Hydroxy-1-methyl-2-oxopyrrolidin-3-yl)isoxazol-3-yl)pyridin-2-yl)pyrimidin-2-yl)amino)-N,N-dimethylpropanamide], the IC50 lay in the range of 50 to 500 nM.
For `C[C@@H](Nc1nccc(-c2cccc(-c3cc([C@]4(O)CCN(C)C4=O)on3)n2)n1)C(=O)N1CC(C)(F)C1` [Example 177, (R)-3-(3-(6-(2-(((R)-1-(3-Fluoro-3-methylazetidin-1-yl)-1-oxopropan-2-yl)amino)pyrimidin-4-yl)pyridin-2-yl)isoxazol-5-yl)-3-hydroxy-1-methylpyrrolidin-2-one] the value was over 500 nM.
Under `C[C@H](Nc1nccc(-c2cccc(-c3cc([C@]4(O)CCN(C)C4=O)on3)n2)n1)C(=O)N1CC(C)(F)C1` [Example 178, (R)-3-(3-(6-(2-(((S)-1-(3-Fluoro-3-methylazetidin-1-yl)-1-oxopropan-2-yl)amino)pyrimidin-4-yl)pyridin-2-yl)isoxazol-5-yl)-3-hydroxy-1-methylpyrrolidin-2-one] stands 50 to 500 nM.
Under `C[C@@H](Nc1nccc(-c2cccc(-c3cc([C@]4(O)CCN(C)C4=O)on3)n2)n1)C(=O)N1CCCCC1` [Example 179, (R)-3-Hydroxy-1-methyl-3-(3-(6-(2-(((R)-1-oxo-1-(piperidin-1-yl)propan-2-yl)amino)pyrimidin-4-yl)pyridin-2-yl)isoxazol-5-yl)pyrrolidin-2-one] stands 50 to 500 nM; under `C[C@H](Nc1nccc(-c2cccc(-c3cc([C@]4(O)CCN(C)C4=O)on3)n2)n1)C(=O)N1CCCCC1` [Example 180, (R)-3-Hydroxy-1-methyl-3-(3-(6-(2-(((S)-1-oxo-1-(piperidin-1-yl)propan-2-yl)amino)pyrimidin-4-yl)pyridin-2-yl)isoxazol-5-yl)pyrrolidin-2-one], 50 to 500 nM.
`C[C@H](Nc1nccc(-c2cccc(-c3cc([C@]4(O)CCN(C)C4=O)on3)n2)n1)C(=O)N(C)c1ccccc1` [Example 181, (S)-2-((4-(6-(5-((R)-3-Hydroxy-1-methyl-2-oxopyrrolidin-3-yl)isoxazol-3-yl)pyridin-2-yl)pyrimidin-2-yl)amino)-N-methyl-N-phenylpropanamide]: the IC50 was over 500 nM.
With `C[C@H](Nc1nccc(-c2cccc(-c3cc([C@]4(O)CCN(C)C4=O)on3)n2)n1)C(N)=O` [Example 182, (S)-2-((4-(6-(5-((R)-3-Hydroxy-1-methyl-2-oxopyrrolidin-3-yl)isoxazol-3-yl)pyridin-2-yl)pyrimidin-2-yl)amino)propanamide], the IC50 lay in the range of 50 to 500 nM.
For the compound `CNC(=O)[C@H](C)Nc1nccc(-c2cccc(-c3cc([C@]4(O)CCN(C)C4=O)on3)n2)n1` [Example 183, (S)-2-((4-(6-(5-((R)-3-Hydroxy-1-methyl-2-oxopyrrolidin-3-yl)isoxazol-3-yl)pyridin-2-yl)pyrimidin-2-yl)amino)-N-methylpropanamide], the IC50 is 50 to 500 nM.
Consider `C[C@H](Nc1nccc(-c2cccc(-c3cc([C@]4(O)CCN(C)C4=O)on3)n2)n1)C(=O)N1CCCC1` [Example 184, (R)-3-Hydroxy-1-methyl-3-(3-(6-(2-(((S)-1-oxo-1-(pyrrolidin-1-yl)propan-2-yl)amino)pyrimidin-4-yl)pyridin-2-yl)isoxazol-5-yl)pyrrolidin-2-one], for which the IC50 lay in the range of 50 to 500 nM.
Under `CN1CC[C@@](O)(c2cc(-c3cccc(-c4ccnc(NCC(=O)N5CC(F)(F)C5)n4)n3)no2)C1=O` [Example 185, (R)-3-(3-(6-(2-((2-(3,3-Difluoroazetidin-1-yl)-2-oxoethyl)amino)pyrimidin-4-yl)pyridin-2-yl)isoxazol-5-yl)-3-hydroxy-1-methylpyrrolidin-2-one] stands over 500 nM; under `CN1CC[C@@](O)(c2cc(-c3cccc(-c4ccnc(Nc5ccon5)n4)n3)no2)C1=O` [Example 186, (R)-3-Hydroxy-3-(3-(6-(2-(isoxazol-3-ylamino)pyrimidin-4-yl)pyridin-2-yl)isoxazol-5-yl)-1-methylpyrrolidin-2-one], 50 to 500 nM.
Regarding `Cc1c(Nc2nccc(-c3cccc(-c4cc([C@@]5(O)CCN(C)C5=O)on4)n3)n2)cnn1C1CCOCC1` [Example 187, (S)-3-Hydroxy-1-methyl-3-(3-(6-(2-((5-methyl-1-(tetrahydro-2H-pyran-4-yl)-1H-pyrazol-4-yl)amino)pyrimidin-4-yl)pyridin-2-yl)isoxazol-5-yl)pyrrolidin-2-one], the IC50 was under 50 nM.
As for `Cc1ncccc1Nc1nccc(-c2cccc(-n3cc([C@]4(O)CCN(C)C4=O)nn3)n2)n1` [Example 190, (R)-3-Hydroxy-1-methyl-3-(1-(6-(2-((2-methylpyridin-3-yl)amino)pyrimidin-4-yl)pyridin-2-yl)-1H-1,2,3-triazol-4-yl)pyrrolidin-2-one], the IC50 was under 50 nM.
With `Cc1cc(Nc2nccc(-c3cccc(-n4cc([C@]5(O)CCN(C)C5=O)nn4)n3)n2)ccn1` [Example 191, (R)-3-Hydroxy-1-methyl-3-(1-(6-(2-((2-methylpyridin-4-yl)amino)pyrimidin-4-yl)pyridin-2-yl)-1H-1,2,3-triazol-4-yl)pyrrolidin-2-one], the IC50 is under 50 nM.
Under `CN1CC[C@@](O)(c2cc(-c3cccc(-c4ccnc(Nc5cc6n(n5)CC(C)(C)OC6)n4)n3)no2)C1=O` [Example 192, (R)-3-(3-(6-(2-((6,6-Dimethyl-6,7-dihydro-4H-pyrazolo[5,1-c][1,4]oxazin-2-yl)amino)pyrimidin-4-yl)pyridin-2-yl)isoxazol-5-yl)-3-hydroxy-1-methylpyrrolidin-2-one] stands under 50 nM.
For `[2H]c1cc(-c2cccc(-n3cc([C@]4(O)CCN(C)C4=O)nn3)n2)nc(Nc2ccn(C)n2)n1` [Example 193, (R)-3-Hydroxy-1-methyl-3-(1-(6-(2-((1-methyl-1H-pyrazol-3-yl)amino)pyrimidin-4-yl-6-d)pyridin-2-yl)-1H-1,2,3-triazol-4-yl)pyrrolidin-2-one], the IC50 is under 50 nM.
For `CN1CC[C@@](O)(c2cc(-c3cccc(-c4ccnc(Nc5cnn6c5OCCC6)n4)n3)no2)C1=O` [Example 194, (R)-3-(3-(6-(2-((6,7-Dihydro-5H-pyrazolo[5,1-b][1,3]oxazin-3-yl)amino)pyrimidin-4-yl)pyridin-2-yl)isoxazol-5-yl)-3-hydroxy-1-methylpyrrolidin-2-one] the value was under 50 nM; for `Cc1cc(Nc2nccc(-c3cccc(-c4cc([C@]5(O)CCN(C)C5=O)on4)n3)n2)ccn1` [Example 196, (R)-3-Hydroxy-1-methyl-3-(3-(6-(2-((2-methylpyridin-4-yl)amino)pyrimidin-4-yl)pyridin-2-yl)isoxazol-5-yl)pyrrolidin-2-one], under 50 nM.
For `Cc1ncccc1Nc1nccc(-c2cccc(-c3cc([C@]4(O)CCN(C)C4=O)on3)n2)n1` [Example 197, (R)-3-Hydroxy-1-methyl-3-(3-(6-(2-((2-methylpyridin-3-yl)amino)pyrimidin-4-yl)pyridin-2-yl)isoxazol-5-yl)pyrrolidin-2-one] the value was under 50 nM; for `[2H]c1cc(-c2cccc(-c3cc([C@]4(O)CCN(C)C4=O)no3)n2)nc(Nc2ccn(C)n2)n1` [Example 200, (R)-3-Hydroxy-1-methyl-3-(5-(6-(2-((1-methyl-1H-pyrazol-3-yl)amino)pyrimidin-4-yl-6-d)pyridin-2-yl)isoxazol-3-yl)pyrrolidin-2-one], under 50 nM.
